Experimental findings from US4387106A, “Method of treating atherosclerosis with di(aralkyl)ureas and di(aralkyl)thioureas” (American Cyanamid Company, priority 1982, dated 1983) are described below.

Molecules are shown by their SMILES.

The test system of experiment [1] is Cholesterol absorption. The note with it: po, 336 h.
Experimental: Inhibition of cholesterol absorption was determined by feeding male Sprague-dawley rats weighing 150-170 g. a 1% cholesterol:0.5% cholic acid diet for 2 weeks. The diet also contained compounds being tested at doses of between 0.01% and 0.1% of the diet. […] Feces were collected for each 24 hour period for the remaining 5 days during which the rats were maintained on the 1% cholesterol:0.5% cholic acid plus test compound diet. Fecal ^14 C-neutral sterols were extracted with petroleum ether from saponified feces by the method of Grundy, S. M. et. al., J. Lipid Res., 6, 397 (1965) and counted in a scintillation counter. Acidic sterols (bile acids) were extracted by acidifying the saponified feces and extracting in chloroform:methanol (2:1) and counting the chloroform phase in a scintillation counter. Total extraction of radioactivity (98-100%) from saponified feces is realized by this procedure.
The effect of test compounds on cholesterol absorption was determined by:
1. increase in excreted ^14 C-neutral sterol
2. decrease in excreted ^14 C-acidic sterol
3. decrease in ^14 C-cholesterol or ^14 C-cholesteryl ester in the liver.
4. decrease in ^14 C-cholesterol or ^14 C-cholesteryl ester in the serum.
The subject of experiment [2] is Cholesterol absorption. The conditions noted are these: po, 0.03 % of diet, 336 h.
Experimental: Compounds were tested in vitro for their ability to inhibit the enzyme fatty acyl CoA:cholesterol acyl transferase (ACAT) and in vivo for serum hypolipidemic activity as measured by their ability to inhibit lipid absorption in rats.
Inhibition of Cholesterol absorption was determined by feeding male Sprague-Dawley rats, weighing 150-170 g., A 1% cholesterol:0.5% cholic acid diet for 2 weeks. The diet also contained compounds being tested at a dose of 0.03% of the diet. Control rats were fed the same diet without any compound. At the end of the test, the rats were sacrificed by decapitation. Blood is collected, centrifuged at 1.5 kg times gravity for 10 minutes at 4° C., and the serum is then analyzed for cholesterol and triglycerides enzymatically by the method of Trinder, P., Analyst, 77, 321 (1952) on a Centrifichem 400 Analyzer. Livers are removed, a 0.4 g sample is taken from the center of the large lobe, and the sample is subjected to saponification using 25% saturated potassium hydroxide in ethanol. The resulting neutral sterols are extracted with petroleum ether and extract analyzed for cholesterol. The effectiveness of the compound in inhibiting cholesterol absorption is measured by the lowering of either serum cholesterol or liver cholesterol relative the values for control rats.
Experiment [3] has as its target T1, fatty acyl CoA:cholesterol acyl transferase (ACAT) (Rattus norvegicus, UniProt O70536).
T1 construct: The supernatant, containing the microsomal fraction, served as the source of the cholesterol-esterifying enzyme; from tissue; host or cells: rat adrenals, homogenate, 1000 x g supernatant containing the microsomal fraction
T1 sequence (O70536 1-545): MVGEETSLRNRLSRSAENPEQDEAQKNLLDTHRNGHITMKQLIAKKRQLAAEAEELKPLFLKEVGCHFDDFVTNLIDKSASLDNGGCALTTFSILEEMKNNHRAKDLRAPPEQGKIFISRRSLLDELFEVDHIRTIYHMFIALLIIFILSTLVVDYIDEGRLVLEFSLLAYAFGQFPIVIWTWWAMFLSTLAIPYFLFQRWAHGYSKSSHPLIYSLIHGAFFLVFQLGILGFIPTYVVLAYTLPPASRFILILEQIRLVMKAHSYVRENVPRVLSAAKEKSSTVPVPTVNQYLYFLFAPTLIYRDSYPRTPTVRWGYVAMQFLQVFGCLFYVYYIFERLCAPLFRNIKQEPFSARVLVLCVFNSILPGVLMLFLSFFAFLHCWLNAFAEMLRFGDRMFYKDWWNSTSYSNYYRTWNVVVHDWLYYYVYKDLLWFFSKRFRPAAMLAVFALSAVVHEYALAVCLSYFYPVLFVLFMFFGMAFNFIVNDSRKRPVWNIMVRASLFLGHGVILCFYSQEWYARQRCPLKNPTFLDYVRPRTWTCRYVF
In words: In vitro inhibition of fatty acyl CoA:cholesterol acyl transferase (ACAT), rat adrenal supernatant. The note with it: final concentration 5.2 μg./ml., pH 7.4, 37° C., oleoyl CoA (14C). Format: biochemical. The protocol: The compounds were tested for their ability to inhibit ACAT according to the following procedure:
Rat adrenals were homogenized in 0.2 M monobasic potassium phosphate buffer, pH 7.4, and centrifuged at 1000 times gravity for 15 minutes at 5° C. The supernatant, containing the microsomal fraction, served as the source of the cholesterol-esterifying enzyme, fatty acyl CoA:cholesterol acyl transferase (ACAT). A mixture comprising 50 parts of adrenal supernatant, 10 parts of albumin (BSA) (50 mg./ml.), 3 parts of test compound (final concentration 5.2 μg./ml.) and 500 parts of buffer was preincubated at 37° C. for 10 minutes. After treatment with 20 parts of oleoyl CoA (^14 C--0.4 μCi) the mixture was incubated at 37° C. for 10 minutes. A control mixture, omitting the test compound, was prepared and treated in the same manner. The lipids from the incubation mixture were extracted into an organic solvent and separated by thin-layer chromatography. The cholesteryl ester fraction was counted in a scintillation counter.

What is called inhibition is the relative decrease from the control value, in per cent. Low values mean little suppression, high ones strong suppression. With `Cc1ccc(NC(=O)N(Cc2ccccc2)Cc2ccccc2)cc1C` [1,1-Dibenzyl-3-(3,4-dimethylphenyl)urea], the “Result (inhibition of cholesterol absorption, 14C-sterol excretion)” value in experiment [1] is on record as “Active”. The “Result (inhibition of cholesterol absorption: lowering of serum or liver cholesterol relative to control)” value in experiment [2] was “Active”. Also, in experiment [3], the inhibition at 5.2 µg/mL was found to be 71.8%.
As to `O=C(Nc1ccccc1C(F)(F)F)N(Cc1ccccc1)Cc1ccccc1` [1,1-Dibenzyl-3-(2-trifluoromethylphenyl)urea], in experiment [2], the “Result (inhibition of cholesterol absorption: lowering of serum or liver cholesterol relative to control)” value is on record as “Active”. In experiment [3], this molecule displayed an inhibition at 5.2 µg/mL of 68.4%.
On the same counts, the results for `O=C(Nc1cccc(Br)c1)N(Cc1ccccc1)Cc1ccccc1` [1,1-Dibenzyl-3-(3-bromophenyl)urea] are “Active” and 91.9%.
`Cc1cc(C)c(NC(=O)N(Cc2ccccc2)Cc2ccccc2)c(C)c1` [1,1-Dibenzyl-3-(2,4,6-trimethylphenyl)urea]: the “Result (inhibition of cholesterol absorption, 14C-sterol excretion)” value in experiment [1] is reported as “Active”. Moreover, the “Result (inhibition of cholesterol absorption: lowering of serum or liver cholesterol relative to control)” value in experiment [2] is “Active”. The molecule further returned an inhibition at 5.2 µg/mL in experiment [3] of 36.9%.
For the molecule `Cc1ccc(NC(=S)N(Cc2ccccc2)Cc2ccccc2)c(C)c1` [1,1-Dibenzyl-3-(2,4-dimethylphenyl)thiourea], in experiment [2], the “Result (inhibition of cholesterol absorption: lowering of serum or liver cholesterol relative to control)” value is “Active”. Besides, the inhibition at 5.2 µg/mL in experiment [3] amounted to 78.7%.
The matching figures for `CCCCc1ccc(NC(=O)N(Cc2ccccc2)Cc2ccccc2)cc1` [1,1-Dibenzyl-3-(4-n-butylphenyl)urea]: “Active” and 91.3%.
With `COc1ccc(C)cc1NC(=O)N(Cc1ccccc1)Cc1ccccc1` [1,1-Dibenzyl-3-(2-methoxy-5-methylphenyl)urea], the “Result (inhibition of cholesterol absorption, 14C-sterol excretion)” value in experiment [1] is listed as “Active”. Besides, the “Result (inhibition of cholesterol absorption: lowering of serum or liver cholesterol relative to control)” value in experiment [2] is given as “Active”. At 5.2 µg/mL the inhibition in experiment [3] was 87.8%.
As to `O=C(Nc1ccc(Oc2ccccc2)cc1)N(Cc1ccccc1)Cc1ccccc1` [1,1-Dibenzyl-3-(4-phenoxyphenyl)urea], in experiment [2], the “Result (inhibition of cholesterol absorption: lowering of serum or liver cholesterol relative to control)” value is on record as “Active”. The molecule also displayed an inhibition at 5.2 µg/mL in experiment [3] of 94.3%.
`Cc1ccc(NC(=O)N(Cc2ccccc2)Cc2ccccc2)c(C)c1` [1,1-Dibenzyl-3-(2,4-dimethylphenyl)urea]: in experiment [1], the “Result (inhibition of cholesterol absorption, 14C-sterol excretion)” value is recorded as “Active”. Besides, the “Result (inhibition of cholesterol absorption: lowering of serum or liver cholesterol relative to control)” value in experiment [2] was “Active”. Further, in experiment [3], the inhibition at 5.2 µg/mL came out at 89.9%.
In the case of `Cc1cccc(NC(=S)N(Cc2ccccc2)Cc2ccccc2)c1` [1,1-Dibenzyl-3-(3-methylphenyl)thiourea], the “Result (inhibition of cholesterol absorption: lowering of serum or liver cholesterol relative to control)” value in experiment [2] was “Active”. For the same molecule, the inhibition at 5.2 µg/mL in experiment [3] is 71.2%.
In the case of `O=C(Nc1ccc(Cl)cc1C(F)(F)F)N(Cc1ccccc1)Cc1ccccc1` [1,1-Dibenzyl-3-(4-chloro-2-trifluoromethylphenyl)urea], the “Result (inhibition of cholesterol absorption, 14C-sterol excretion)” value in experiment [1] was “Active”. Moreover, the “Result (inhibition of cholesterol absorption: lowering of serum or liver cholesterol relative to control)” value in experiment [2] is “Active”. For the same molecule, the inhibition at 5.2 µg/mL in experiment [3] is 81.8%.
For `Cc1ccc(Cl)cc1NC(=O)N(Cc1ccccc1)Cc1ccccc1` [1,1-Dibenzyl-3-(5-chloro-2-methylphenyl)urea], the “Result (inhibition of cholesterol absorption, 14C-sterol excretion)” value in experiment [1] is “Active”. Further, in experiment [2], the “Result (inhibition of cholesterol absorption: lowering of serum or liver cholesterol relative to control)” value is given as “Active”. In experiment [3], this molecule showed an inhibition at 5.2 µg/mL of 71.3%.
With `Cc1cccc(NC(=O)N(Cc2ccccc2)Cc2ccccc2)c1C` [1,1-Dibenzyl-3-(2,3-dimethylphenyl)urea], the “Result (inhibition of cholesterol absorption, 14C-sterol excretion)” value in experiment [1] was “Active”. Further, the “Result (inhibition of cholesterol absorption: lowering of serum or liver cholesterol relative to control)” value in experiment [2] is “Active”. In addition, the inhibition at 5.2 µg/mL in experiment [3] was determined as 88.1%.
As to `Cc1cc(Cl)ccc1NC(=O)N(Cc1ccccc1)Cc1ccccc1` [1,1-Dibenzyl-3-(4-chloro-2-methylphenyl)urea], the “Result (inhibition of cholesterol absorption, 14C-sterol excretion)” value in experiment [1] is given as “Active”. In addition, the “Result (inhibition of cholesterol absorption: lowering of serum or liver cholesterol relative to control)” value in experiment [2] is on record as “Active”. This molecule yielded an inhibition at 5.2 µg/mL in experiment [3] of 62.7%.
As for `Cc1ccc(NC(=O)N(Cc2ccccc2)Cc2ccccc2)cc1Cl` [1,1-Dibenzyl-3-(3-chloro-4-methylphenyl)urea], the “Result (inhibition of cholesterol absorption, 14C-sterol excretion)” value in experiment [1] was “Active”. Further, the “Result (inhibition of cholesterol absorption: lowering of serum or liver cholesterol relative to control)” value in experiment [2] is “Active”. The molecule also returned an inhibition at 5.2 µg/mL in experiment [3] of 94%.
